Measured values taken from ChEMBL document CHEMBL4321812, “Structure-based rational design of staurosporine-based fluorescent probe with broad-ranging kinase affinity for kinase panel application” (Bioorg Med Chem Lett, 2019).
pKd: −log10 of the molar value.

Legend:
[1] = target: Tyrosine-protein kinase BTK (Homo sapiens, UniProt Q06187); experiment: Binding affinity to recombinant human full-length N-terminal GST-tagged BTK expressed in baculovirus expression system using srctide as substrate incubated for 1 hr by TR-FRET assay
Tyrosine-protein kinase BTK, sequence (Q06187 whole entry, the tested form may be a part): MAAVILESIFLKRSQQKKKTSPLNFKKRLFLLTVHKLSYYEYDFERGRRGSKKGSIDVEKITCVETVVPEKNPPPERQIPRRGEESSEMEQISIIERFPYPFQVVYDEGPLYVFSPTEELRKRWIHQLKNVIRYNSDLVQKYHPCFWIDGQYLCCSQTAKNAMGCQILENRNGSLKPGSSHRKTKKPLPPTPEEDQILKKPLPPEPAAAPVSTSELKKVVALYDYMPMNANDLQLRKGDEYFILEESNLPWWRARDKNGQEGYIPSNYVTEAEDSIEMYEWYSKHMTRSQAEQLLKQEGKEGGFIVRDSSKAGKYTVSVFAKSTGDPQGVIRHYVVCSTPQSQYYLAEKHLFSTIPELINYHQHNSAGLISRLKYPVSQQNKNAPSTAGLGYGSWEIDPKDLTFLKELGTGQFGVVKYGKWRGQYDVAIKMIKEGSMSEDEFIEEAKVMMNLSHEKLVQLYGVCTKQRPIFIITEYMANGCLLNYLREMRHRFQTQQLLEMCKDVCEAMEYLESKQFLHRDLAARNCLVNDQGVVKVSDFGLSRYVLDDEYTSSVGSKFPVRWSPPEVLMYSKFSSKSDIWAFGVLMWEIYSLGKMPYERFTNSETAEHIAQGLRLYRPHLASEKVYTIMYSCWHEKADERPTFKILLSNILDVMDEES

[2] = target: Mitogen-activated protein kinase 8 (Homo sapiens, UniProt P45983); experiment: Binding affinity to recombinant N-terminal His-FLAG-GST-tagged MAPK8 (unknown origin) (2 to 364 residues) expressed in baculovirus infected Sf9 insect cells incubated for 1 hr by TR-FRET assay
TGF-beta receptor type-2 = TGF-beta receptor type-2 (Homo sapiens, UniProt P37173); experiment: Binding affinity to recombinant N-terminal His-FLAG-GST-tagged TGFBR2 (unknown origin) (194 to 567 residues) expressed in baculovirus infected Sf9 insect cells incubated for 1 hr by TR-FRET assay
[3] = target: Non-receptor tyrosine-protein kinase TYK2 (Homo sapiens, UniProt P29597); experiment: Binding affinity to recombinant N-terminal His-FLAG-GST-tagged TYK2 (unknown origin) (871 to 1187 residues) expressed in baculovirus infected Sf9 insect cells incubated for 1 hr by TR-FRET assay
Non-receptor tyrosine-protein kinase TYK2, sequence (P29597 whole entry, the tested form may be a part): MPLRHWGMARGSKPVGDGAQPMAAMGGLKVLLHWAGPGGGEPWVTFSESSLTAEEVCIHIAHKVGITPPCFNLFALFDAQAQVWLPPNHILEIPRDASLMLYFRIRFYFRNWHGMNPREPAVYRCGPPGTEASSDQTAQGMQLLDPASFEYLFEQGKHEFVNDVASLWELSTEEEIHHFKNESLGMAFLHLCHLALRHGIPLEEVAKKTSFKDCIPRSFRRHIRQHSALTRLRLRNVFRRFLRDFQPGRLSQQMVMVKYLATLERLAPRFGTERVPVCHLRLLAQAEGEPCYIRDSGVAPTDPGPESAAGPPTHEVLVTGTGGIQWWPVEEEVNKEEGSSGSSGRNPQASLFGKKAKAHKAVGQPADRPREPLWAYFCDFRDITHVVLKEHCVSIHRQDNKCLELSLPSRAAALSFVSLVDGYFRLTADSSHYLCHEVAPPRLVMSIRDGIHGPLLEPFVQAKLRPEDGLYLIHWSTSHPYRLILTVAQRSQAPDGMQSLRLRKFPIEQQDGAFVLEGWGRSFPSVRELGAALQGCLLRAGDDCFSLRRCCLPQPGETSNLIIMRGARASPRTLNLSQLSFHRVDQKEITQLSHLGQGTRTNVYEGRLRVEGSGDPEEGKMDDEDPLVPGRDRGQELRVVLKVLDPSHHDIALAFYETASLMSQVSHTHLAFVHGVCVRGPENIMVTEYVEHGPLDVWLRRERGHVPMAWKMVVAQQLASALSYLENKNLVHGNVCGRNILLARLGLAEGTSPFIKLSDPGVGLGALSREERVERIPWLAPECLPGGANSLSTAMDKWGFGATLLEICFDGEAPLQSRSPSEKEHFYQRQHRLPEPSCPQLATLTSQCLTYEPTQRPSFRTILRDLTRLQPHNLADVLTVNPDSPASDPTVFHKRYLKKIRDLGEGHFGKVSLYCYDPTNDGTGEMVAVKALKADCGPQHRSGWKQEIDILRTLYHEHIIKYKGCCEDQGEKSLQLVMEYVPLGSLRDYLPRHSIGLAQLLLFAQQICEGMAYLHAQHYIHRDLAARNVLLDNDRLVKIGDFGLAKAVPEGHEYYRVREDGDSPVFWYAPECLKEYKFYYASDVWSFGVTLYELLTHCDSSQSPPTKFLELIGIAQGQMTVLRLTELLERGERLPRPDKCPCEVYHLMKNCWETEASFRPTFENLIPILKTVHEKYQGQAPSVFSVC

LIM domain kinase 1 = LIM domain kinase 1 (Homo sapiens, UniProt P53667); experiment: Binding affinity to truncated human N-terminal GST-tagged LIMK1 (285 to 638 residues) expressed in baculovirus expression system using cofilin2 as substrate incubated for 1 hr by TR-FRET assay
LIM domain kinase 1, sequence (P53667 whole entry, the tested form may be a part): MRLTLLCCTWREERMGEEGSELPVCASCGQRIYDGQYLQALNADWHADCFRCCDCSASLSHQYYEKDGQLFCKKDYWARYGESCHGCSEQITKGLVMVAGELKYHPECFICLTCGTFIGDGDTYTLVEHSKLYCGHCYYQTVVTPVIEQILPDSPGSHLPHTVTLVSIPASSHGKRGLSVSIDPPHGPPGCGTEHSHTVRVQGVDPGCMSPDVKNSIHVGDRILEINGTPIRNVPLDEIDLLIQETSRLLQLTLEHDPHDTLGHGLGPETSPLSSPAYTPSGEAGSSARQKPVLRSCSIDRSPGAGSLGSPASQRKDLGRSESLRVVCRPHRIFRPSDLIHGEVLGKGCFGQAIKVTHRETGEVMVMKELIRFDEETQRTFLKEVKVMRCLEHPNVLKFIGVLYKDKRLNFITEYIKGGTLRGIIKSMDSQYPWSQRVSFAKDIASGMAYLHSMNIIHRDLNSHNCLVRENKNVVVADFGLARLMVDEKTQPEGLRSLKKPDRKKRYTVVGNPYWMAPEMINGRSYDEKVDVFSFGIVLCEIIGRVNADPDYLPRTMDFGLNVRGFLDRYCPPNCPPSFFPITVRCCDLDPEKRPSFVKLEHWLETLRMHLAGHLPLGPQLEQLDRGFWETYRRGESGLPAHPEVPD

[4] = target: Interleukin-1 receptor-associated kinase 4 (Homo sapiens, UniProt Q9NWZ3); experiment: Binding affinity to recombinant full-length human N-terminal his-tagged IRAK4 expressed in baculovirus expression system using IRAK1 peptide as substrate incubated for 1 hr by TR-FRET assay
Interleukin-1 receptor-associated kinase 4, sequence (Q9NWZ3 whole entry): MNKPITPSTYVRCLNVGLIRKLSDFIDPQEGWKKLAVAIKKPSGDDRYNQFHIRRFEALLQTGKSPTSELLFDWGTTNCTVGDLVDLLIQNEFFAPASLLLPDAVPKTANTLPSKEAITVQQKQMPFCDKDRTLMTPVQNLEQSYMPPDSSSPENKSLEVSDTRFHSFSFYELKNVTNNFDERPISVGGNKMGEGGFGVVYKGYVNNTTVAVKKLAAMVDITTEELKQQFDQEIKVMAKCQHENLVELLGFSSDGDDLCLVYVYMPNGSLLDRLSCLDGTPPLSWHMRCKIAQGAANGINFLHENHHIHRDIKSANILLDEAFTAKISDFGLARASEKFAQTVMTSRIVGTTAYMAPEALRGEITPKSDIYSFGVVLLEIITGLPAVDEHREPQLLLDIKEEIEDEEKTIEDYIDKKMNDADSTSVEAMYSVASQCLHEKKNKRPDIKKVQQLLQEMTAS

[5] = target: Serine/threonine-protein kinase DCLK3 (Homo sapiens, UniProt Q9C098); experiment: Binding affinity to recombinant full-length N-terminal His-FLAG-tagged DCLK3 (unknown origin) expressed in baculovirus infected Sf9 insect cells incubated for 1 hr by TR-FRET assay
[6] = target: Platelet-derived growth factor receptor beta (Homo sapiens, UniProt P09619); experiment: Binding affinity to recombinant human N-terminal his-tagged PDGFRB (558 to 1106 residues) expressed in baculovirus expression system incubated for 1 hr by TR-FRET assay
[7] = target: Tyrosine-protein kinase SYK (Homo sapiens, UniProt P43405); experiment: Binding affinity to recombinant human full-length N-terminal GST-tagged SYK expressed in baculovirus expression system using Blk/Lyntide as substrate incubated for 1 hr by TR-FRET assay
[8] = target: Serine/threonine-protein kinase 17A (Homo sapiens, UniProt Q9UEE5); experiment: Binding affinity to recombinant full length N-terminal His-FLAG-GST-tagged STK17A (unknown origin) expressed in baculovirus infected Sf9 insect cells incubated for 1 hr by TR-FRET assay
[9] = target: Dual specificity protein kinase CLK2 (Homo sapiens, UniProt P49760); experiment: Binding affinity to recombinant full-length N-terminal His-FLAG-GST-tagged CLK2 (unknown origin) expressed in baculovirus infected Sf9 insect cells incubated for 1 hr by TR-FRET assay
[10] = target: Protein-tyrosine kinase 2-beta (Homo sapiens, UniProt Q14289); experiment: Binding affinity to recombinant full-length N-terminal His-FLAG-tagged PTK2B (unknown origin) expressed in baculovirus infected Sf9 insect cells incubated for 1 hr by TR-FRET assay
[11] = target: Tyrosine-protein kinase Fyn (Homo sapiens, UniProt P06241); experiment: Binding affinity to recombinant full-length N-terminal His-FLAG-tagged FYN (unknown origin) expressed in baculovirus infected Sf9 insect cells incubated for 1 hr by TR-FRET assay
[12] = target: Tyrosine-protein kinase CSK (Homo sapiens, UniProt P41240); experiment: Binding affinity to recombinant full-length N-terminal His-FLAG-tagged CSK (unknown origin) expressed in baculovirus infected Sf9 insect cells incubated for 1 hr by TR-FRET assay
Tyrosine-protein kinase CSK, sequence (P41240 whole entry): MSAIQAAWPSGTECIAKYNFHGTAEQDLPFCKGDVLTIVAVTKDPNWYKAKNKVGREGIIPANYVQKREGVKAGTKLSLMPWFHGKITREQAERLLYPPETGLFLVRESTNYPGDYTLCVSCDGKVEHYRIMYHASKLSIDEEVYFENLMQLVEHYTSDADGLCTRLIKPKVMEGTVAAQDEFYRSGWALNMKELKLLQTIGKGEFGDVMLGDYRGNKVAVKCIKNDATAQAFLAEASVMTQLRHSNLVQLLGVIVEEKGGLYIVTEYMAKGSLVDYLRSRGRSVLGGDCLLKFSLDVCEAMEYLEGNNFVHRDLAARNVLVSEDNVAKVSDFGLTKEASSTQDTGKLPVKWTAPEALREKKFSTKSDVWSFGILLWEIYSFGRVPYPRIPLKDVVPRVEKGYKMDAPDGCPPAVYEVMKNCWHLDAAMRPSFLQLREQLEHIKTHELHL

Myotonin-protein kinase = Myotonin-protein kinase (Homo sapiens, UniProt Q09013); experiment: Binding affinity to recombinant full-length N-terminal His-FLAG-GST-tagged DMPK (unknown origin) expressed in baculovirus infected Sf9 insect cells incubated for 1 hr by TR-FRET assay
[13] = target: Serine/threonine-protein kinase 25 (Homo sapiens, UniProt O00506); experiment: Binding affinity to recombinant full-length N-terminal His-FLAG-GST-tagged STK25 (unknown origin) expressed in baculovirus infected Sf9 insect cells incubated for 1 hr by TR-FRET assay
[14] = target: Citron Rho-interacting kinase (Homo sapiens, UniProt O14578); experiment: Binding affinity to recombinant full-length N-terminal His-FLAG-GST-tagged CIT (unknown origin) (1 to 449 residues) expressed in baculovirus infected Sf9 insect cells incubated for 1 hr by TR-FRET assay
[15] = target: Maternal embryonic leucine zipper kinase (Homo sapiens, UniProt Q14680); experiment: Binding affinity to recombinant full-length N-terminal His-FLAG-GST-tagged MELK (unknown origin) (1 to 493 residues) expressed in baculovirus infected Sf9 insect cells incubated for 1 hr by TR-FRET assay
[16] = target: TRAF2 and NCK-interacting protein kinase (Homo sapiens, UniProt Q9UKE5); experiment: Binding affinity to recombinant full-length N-terminal His-FLAG-GST-tagged TNIK (unknown origin) (1 to 314 residues) expressed in baculovirus infected Sf9 insect cells incubated for 1 hr by TR-FRET assay
[17] = target: Serine/threonine-protein kinase 32C (Homo sapiens, UniProt Q86UX6); experiment: Binding affinity to recombinant full-length N-terminal His-FLAG-GST-tagged STK32C (unknown origin) (66 to 486 residues) expressed in baculovirus infected Sf9 insect cells incubated for 1 hr by TR-FRET assay
[18] = target: Death-associated protein kinase 3 (Homo sapiens, UniProt O43293); experiment: Binding affinity to recombinant full-length N-terminal His-FLAG-GST-tagged DAPK3 (unknown origin) expressed in baculovirus infected Sf9 insect cells incubated for 1 hr by TR-FRET assay
CDK8/Cyclin C = CDK8/Cyclin C (Homo sapiens, UniProt P49336); experiment: Binding affinity to recombinant human full length N-terminal GST-tagged CDK8 co-expressed with N-terminal GST-tagged CyclinC expressed in baculovirus expression system using RNA polymerase peptide as substrate incubated for 1 hr by TR-FRET assay
CDK8/Cyclin C, sequence (P49336 whole entry): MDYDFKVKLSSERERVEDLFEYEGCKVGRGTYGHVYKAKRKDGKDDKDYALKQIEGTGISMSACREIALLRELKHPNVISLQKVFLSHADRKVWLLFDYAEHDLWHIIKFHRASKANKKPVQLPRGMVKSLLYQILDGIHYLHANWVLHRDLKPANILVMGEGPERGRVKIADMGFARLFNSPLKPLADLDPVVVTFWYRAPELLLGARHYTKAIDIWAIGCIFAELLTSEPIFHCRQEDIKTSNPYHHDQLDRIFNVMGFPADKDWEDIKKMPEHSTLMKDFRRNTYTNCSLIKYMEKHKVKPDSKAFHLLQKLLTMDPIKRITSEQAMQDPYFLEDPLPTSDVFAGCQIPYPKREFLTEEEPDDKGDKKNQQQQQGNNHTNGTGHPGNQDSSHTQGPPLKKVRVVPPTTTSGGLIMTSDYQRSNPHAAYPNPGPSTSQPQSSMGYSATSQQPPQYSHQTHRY
CDK8/Cyclin C, sequence (P24863 whole entry, further chain): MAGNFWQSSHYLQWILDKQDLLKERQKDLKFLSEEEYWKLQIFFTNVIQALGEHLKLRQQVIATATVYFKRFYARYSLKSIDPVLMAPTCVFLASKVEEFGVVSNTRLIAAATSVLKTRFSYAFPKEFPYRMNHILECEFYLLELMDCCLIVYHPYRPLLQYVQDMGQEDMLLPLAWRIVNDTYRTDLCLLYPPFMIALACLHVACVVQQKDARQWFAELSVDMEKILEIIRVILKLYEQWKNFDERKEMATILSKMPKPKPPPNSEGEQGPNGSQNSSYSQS

[19] = target: Protein kinase C alpha type (Homo sapiens, UniProt P17252); experiment: Binding affinity to recombinant full-length N-terminal His-FLAG-GST-tagged PRKCA (unknown origin) expressed in baculovirus infected Sf9 insect cells incubated for 1 hr by TR-FRET assay
[20] = target: Dual specificity tyrosine-phosphorylation-regulated kinase 1B (Homo sapiens, UniProt Q9Y463); experiment: Binding affinity to recombinant full-length N-terminal His-FLAG-tagged DYRK1B (unknown origin) expressed in baculovirus infected Sf9 insect cells incubated for 1 hr by TR-FRET assay
Dual specificity tyrosine-phosphorylation-regulated kinase 1B, sequence (Q9Y463 whole entry): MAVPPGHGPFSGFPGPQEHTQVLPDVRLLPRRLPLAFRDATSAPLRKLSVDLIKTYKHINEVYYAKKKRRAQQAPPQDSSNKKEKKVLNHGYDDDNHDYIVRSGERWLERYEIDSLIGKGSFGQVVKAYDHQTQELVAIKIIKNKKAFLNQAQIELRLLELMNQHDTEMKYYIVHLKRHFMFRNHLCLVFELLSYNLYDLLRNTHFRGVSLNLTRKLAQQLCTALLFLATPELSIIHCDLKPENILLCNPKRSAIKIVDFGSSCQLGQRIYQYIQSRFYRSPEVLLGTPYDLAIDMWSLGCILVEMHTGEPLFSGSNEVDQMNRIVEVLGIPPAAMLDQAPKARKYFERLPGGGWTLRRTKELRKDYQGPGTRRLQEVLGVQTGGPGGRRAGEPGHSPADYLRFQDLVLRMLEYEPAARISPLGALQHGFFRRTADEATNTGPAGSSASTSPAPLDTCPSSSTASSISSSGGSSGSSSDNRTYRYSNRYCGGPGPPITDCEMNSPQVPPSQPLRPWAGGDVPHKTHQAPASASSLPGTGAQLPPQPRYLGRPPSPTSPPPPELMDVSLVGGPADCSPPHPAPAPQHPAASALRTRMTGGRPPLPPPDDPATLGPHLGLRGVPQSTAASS

[21] = target: Serine/threonine-protein kinase MARK1 (Homo sapiens, UniProt Q9P0L2); experiment: Binding affinity to recombinant full-length N-terminal His-FLAG-tagged MARK1 (unknown origin) expressed in baculovirus infected Sf9 insect cells incubated for 1 hr by TR-FRET assay

CO[C@@H]1[C@H](NCCOCCOCCOCCNC(=O)CCC2=[N+]3C(=Cc4c(C)cc(C)n4[B-]3(F)F)C=C2)C[C@H]2O[C@]1(C)n1c3ccccc3c3c4c(c5c6ccccc6n2c5c31)C(=O)NC4
pKd [1]: 6.43 | pKd [2]: 6.54 | pKd (TGF-beta receptor type-2): 6.07 | pKd [3]: 8.10 | pKd (LIM domain kinase 1): 8.22 | pKd [4]: 7.64 | pKd [5]: 7.22 | pKd [6]: 6.78 | pKd [7]: 7.59 | pKd [8]: 6.59 | pKd [9]: 6.50 | pKd [10]: 7.23 | pKd [11]: 6.57 | pKd [12]: 6.06 | pKd (Myotonin-protein kinase): 7.05 | pKd [13]: 6.35 | pKd [14]: 6.13 | pKd [15]: 7.30 | pKd [16]: 6.92 | pKd [17]: 6.35 | pKd [18]: 7.39 | pKd (CDK8/Cyclin C): 6.52 | pKd [19]: 7.04 | pKd [20]: 6.97 | pKd [21]: 8.05

CO[C@@H]1[C@H](N(C)CCOCCOCCOCCNC(=O)CCC2=[N+]3C(=Cc4c(C)cc(C)n4[B-]3(F)F)C=C2)C[C@H]2O[C@]1(C)n1c3ccccc3c3c4c(c5c6ccccc6n2c5c31)C(=O)NC4
pKd [1]: 6.36 | pKd [2]: 6.27 | pKd (TGF-beta receptor type-2): < 5.70 | pKd [3]: 7.31 | pKd (LIM domain kinase 1): 7.49 | pKd [4]: 7.12 | pKd [5]: 6.98 | pKd [6]: 6.59 | pKd [7]: 7.39 | pKd [8]: 6.44 | pKd [9]: 6.40 | pKd [10]: 7.14 | pKd [11]: 6.49 | pKd [12]: 5.99 | pKd (Myotonin-protein kinase): 7.03 | pKd [13]: 6.35 | pKd [14]: 6.15 | pKd [15]: 7.39 | pKd [16]: 7.01 | pKd [17]: 6.49 | pKd [18]: 7.60 | pKd (CDK8/Cyclin C): 6.83 | pKd [19]: 7.37 | pKd [20]: 7.40 | pKd [21]: 8.52
